Marks after values point to notes of the source that are not given here.
Columns and labels:
[1] = tested on: PBMCs from YF-17DD vaccinees; type: cell-based, human
[2] = tested on: CD4^+ depleted PBMCs from YF-17DD vaccinees; type: cell-based, human
[3] = tested on: 14 different HLA class II molecules; type: binding, human
[4] = tested on: CD8^+ T-cells isolated from HLA-A*0201 positive individuals; type: cell-based, human

Row | Molecule | ELISPOT Max [1] | ELISPOT Min [1] | No. of responders [1] | Recognition frequency (%) (Table S1) [1] | IFN-γ SFC Average ± STDEV [2] | IFN-γ SFC Median [2] | No. of responders (CD4-depleted PBMCs) [2] | Level of peptide promiscuity [3] | Total DR bound [3] | T-cell activation by 9-mers covering NS4b77–91 [1] | yield of cellular proliferation of the CD8^+ T-cell population expanded by aAPCs [4]
1 | CC[C@H](C)[C@H](NC(=O)CNC(=O)[C@H](CCCCN)NC(=O)[C@@H](N)CC(N)=O)C(=O)N[C@@H](CC(C)C)C(=O)N[C@H](C(=O)N[C@H](C(=O)N[C@H](C(=O)N[C@@H](CC(N)=O)C(=O)N1CCC[C@H]1C(=O)N[C@H](C(=O)N[C@@H](C)C(=O)N[C@@H](CO)C(=O)N[C@H](C(=O)N[C@@H](CC(N)=O)C(=O)O)[C@@H](C)O)[C@@H](C)CC)C(C)C)[C@@H](C)O)C(C)C [Env345–359] | 271 SFC/10^6 PBMC | 10 SFC/10^6 PBMC | 9 | 33% | 315±160 SFC (CD4-depleted PBMCs/10^6) | 287 SFC (CD4-depleted PBMCs/10^6) | 3 | highly promiscuous (key: low (affinity to 2 to 5 HLA class II molecules bound); intermediate (affinity to 6 to 9 HLA class II molecules bound); highly promiscuous (binding to ≥10 HLA molecules)) | 13 | – | –
2 | CC(C)C[C@H](NC(=O)[C@H](C)NC(=O)[C@H](CCC(=O)O)NC(=O)[C@H](Cc1ccccc1)NC(=O)[C@H](CCC(=O)O)NC(=O)[C@H](CC(C)C)NC(=O)[C@H](Cc1ccc(O)cc1)NC(=O)[C@H](CCCNC(=N)N)NC(=O)[C@H](C)NC(=O)CN)C(=O)NCC(=O)N[C@@H](Cc1ccccc1)C(=O)N[C@@H](CC(C)C)C(=O)N[C@@H](CC(N)=O)C(=O)N[C@@H](CCC(=O)O)C(=O)O [NS5_481–495] | 1022 SFC/10^6 PBMC | 13 SFC/10^6 PBMC | 11 | 23% | 95±0 SFC (CD4-depleted PBMCs/10^6) | 95 SFC (CD4-depleted PBMCs/10^6) | 2 | highly promiscuous (key: low (affinity to 2 to 5 HLA class II molecules bound); intermediate (affinity to 6 to 9 HLA class II molecules bound); highly promiscuous (binding to ≥10 HLA molecules)) | 10 | – | –
3 | CSCC[C@H](NC(=O)[C@@H](NC(=O)[C@@H](N)C(C)C)C(C)C)C(=O)N[C@H](C(=O)N[C@@H](CO)C(=O)N[C@@H](CC(C)C)C(=O)N[C@@H](C)C(=O)N[C@@H](CC(C)C)C(=O)N[C@H](C(=O)NCC(=O)N[C@@H](C)C(=O)N[C@@H](C)C(=O)N[C@@H](CC(C)C)C(=O)N[C@@H](Cc1c[nH]cn1)C(=O)N1CCC[C@H]1C(=O)O)C(C)C)[C@@H](C)O [NS2b97–111] | 26 SFC/10^6 PBMC | 10 SFC/10^6 PBMC | 6 | 10% | – | – | – | intermediate (key: low (affinity to 2 to 5 HLA class II molecules bound); intermediate (affinity to 6 to 9 HLA class II molecules bound); highly promiscuous (binding to ≥10 HLA molecules)) | 7 | – | –
4 | CC[C@H](C)[C@H](NC(=O)CNC(=O)[C@H](CCCCN)NC(=O)[C@H](CC(N)=O)NC(=O)[C@@H](NC(=O)[C@H](C)NC(=O)[C@H](C)NC(=O)[C@@H](NC(=O)[C@H](CC(C)C)NC(=O)[C@H](CC(=O)O)NC(=O)[C@H](CC(=O)O)NC(=O)[C@H](C)N)[C@@H](C)O)[C@@H](C)CC)C(=O)N[C@@H](CC(C)C)C(=O)N[C@H](C(=O)N[C@H](C(=O)O)[C@@H](C)O)C(C)C [Env337–351] | 30 SFC/10^6 PBMC | 12 SFC/10^6 PBMC | 3 | 17% | – | – | – | intermediate (key: low (affinity to 2 to 5 HLA class II molecules bound); intermediate (affinity to 6 to 9 HLA class II molecules bound); highly promiscuous (binding to ≥10 HLA molecules)) | 9 | – | –
5 | CC[C@H](C)[C@H](NC(=O)[C@H](C)NC(=O)[C@H](CCCNC(=N)N)NC(=O)[C@H](CO)NC(=O)CNC(=O)[C@H](CCCCN)NC(=O)[C@H](C)N)C(=O)N[C@@H](Cc1c[nH]c2ccccc12)C(=O)N[C@@H](Cc1ccc(O)cc1)C(=O)N[C@@H](CCSC)C(=O)N[C@@H](Cc1c[nH]c2ccccc12)C(=O)N[C@@H](CC(C)C)C(=O)NCC(=O)N[C@@H](C)C(=O)N[C@@H](CCCNC(=N)N)C(=O)O [NS5_469–483] | 1828 SFC/10^6 PBMC | 13 SFC/10^6 PBMC | 8 | 17% | – | – | – | highly promiscuous (key: low (affinity to 2 to 5 HLA class II molecules bound); intermediate (affinity to 6 to 9 HLA class II molecules bound); highly promiscuous (binding to ≥10 HLA molecules)) | 10 | – | –
6 | CC[C@H](C)[C@H](NC(=O)[C@H](C)NC(=O)[C@H](CCCNC(=N)N)NC(=O)[C@H](CO)NC(=O)CNC(=O)[C@H](CCCCN)NC(=O)[C@H](C)NC(=O)[C@H](CCCCN)NC(=O)CNC(=O)[C@H](Cc1ccccc1)NC(=O)[C@@H](N)CCC(=O)O)C(=O)N[C@@H](Cc1c[nH]c2ccccc12)C(=O)N[C@@H](Cc1ccc(O)cc1)C(=O)N[C@@H](CCSC)C(=O)N[C@@H](Cc1c[nH]c2ccccc12)C(=O)O [NS5_465–479] | 1593 SFC/10^6 PBMC | 10 SFC/10^6 PBMC | 6 | 12% | 168±0 SFC (CD4-depleted PBMCs/10^6) | 168 SFC (CD4-depleted PBMCs/10^6) | 2 | intermediate (key: low (affinity to 2 to 5 HLA class II molecules bound); intermediate (affinity to 6 to 9 HLA class II molecules bound); highly promiscuous (binding to ≥10 HLA molecules)) | 7 | – | –
7 | CC(C)[C@H](NC(=O)[C@H](CCCNC(=N)N)NC(=O)[C@H](CCC(N)=O)NC(=O)[C@H](CCC(N)=O)NC(=O)CNC(=O)[C@H](Cc1ccccc1)NC(=O)[C@@H]1CCCN1C(=O)[C@@H](NC(=O)[C@@H](NC(=O)[C@H](CC(=O)O)NC(=O)[C@@H](N)[C@@H](C)O)[C@@H](C)O)[C@@H](C)O)C(=O)N[C@@H](Cc1ccccc1)C(=O)N[C@@H](CCCCN)C(=O)N[C@@H](CCC(=O)O)C(=O)N[C@@H](CCCCN)C(=O)O [NS5_345–359] | 914 SFC/10^6 PBMC | 55 SFC/10^6 PBMC | 8 | 17% | 66±71 SFC (CD4-depleted PBMCs/10^6) | 32 SFC (CD4-depleted PBMCs/10^6) | 3 | low (key: low (affinity to 2 to 5 HLA class II molecules bound); intermediate (affinity to 6 to 9 HLA class II molecules bound); highly promiscuous (binding to ≥10 HLA molecules)) | 2 | – | –
8 | CC[C@H](C)[C@H](NC(=O)[C@@H](NC(=O)[C@H](CCC(=O)O)NC(=O)CNC(=O)[C@H](CC(N)=O)NC(=O)[C@H](CCCNC(=N)N)NC(=O)[C@H](CC(N)=O)NC(=O)[C@@H](NC(=O)[C@@H](NC(=O)[C@@H]1CCCN1C(=O)[C@H](CO)NC(=O)CNC(=O)[C@H](CO)NC(=O)[C@@H](NC(=O)CN)[C@@H](C)O)[C@@H](C)CC)C(C)C)C(C)C)C(=O)O [NS3_137–151] | 137 SFC/10^6 PBMC | 18 SFC/10^6 PBMC | 5 | 11% | – | – | 0 | – | 1 | – | –
9 | CSCC[C@H](NC(=O)[C@H](C)NC(=O)[C@H](CCSC)NC(=O)[C@@H](N)CCCNC(=N)N)C(=O)N[C@H](C(=O)N[C@@H](CC(=O)O)C(=O)N[C@H](C(=O)N[C@H](C(=O)N1CCC[C@H]1C(=O)N[C@@H](Cc1ccccc1)C(=O)NCC(=O)N[C@@H](CCC(N)=O)C(=O)N[C@@H](CCC(N)=O)C(=O)N[C@@H](CCCNC(=N)N)C(=O)N[C@H](C(=O)O)C(C)C)[C@@H](C)O)[C@@H](C)O)[C@@H](C)O [NS5_341–355] | 267 SFC/10^6 PBMC | 27 SFC/10^6 PBMC | 6 | 12% | – | – | 0 | low (key: low (affinity to 2 to 5 HLA class II molecules bound); intermediate (affinity to 6 to 9 HLA class II molecules bound); highly promiscuous (binding to ≥10 HLA molecules)) | 4 | – | –
10 | CC[C@H](C)[C@H](NC(=O)[C@H](CC(C)C)NC(=O)[C@@H](NC(=O)[C@H](CCC(=O)O)NC(=O)[C@@H](N)CC(=O)O)C(C)C)C(=O)N[C@@H](CCC(=O)O)C(=O)N[C@H](C(=O)N[C@@H](CC(N)=O)C(=O)N1CCC[C@H]1C(=O)N1CCC[C@H]1C(=O)N[C@@H](Cc1ccccc1)C(=O)NCC(=O)N[C@@H](CC(=O)O)C(=O)N[C@@H](CO)C(=O)N[C@@H](Cc1ccc(O)cc1)C(=O)O)C(C)C [Env361–375] | 203 SFC/10^6 PBMC | 14 SFC/10^6 PBMC | 4 | 15% | 16±0 SFC (CD4-depleted PBMCs/10^6) | 16 SFC (CD4-depleted PBMCs/10^6) | 2 | – | 10 | – | –
11 | LWNGPMAVS [NS4b77–85] | – | – | – | – | – | – | – | – | – | induced the most T-cell activation | 2×10^6
